From PMC7490411 (Signal Transduction and Targeted Therapy, 2020)
Like-named read-outs stand apart in the source and are kept apart here.

Experiments:
[1] = in vivo pharmacokinetic study; design: species or system rats; conditions: male, Sprague-Dawley, rat, plasma; for MRT inf: read-out: MRT (0- ∞)
[2] = tested on: TMD8 cell (DLBCL)-inoculated xenograft; assay: TMD8 cell subcutaneous xenograft tumor model; format: in vivo
[3] = tested on: ABL1(F317I)-phosphorylated; assay: KINOMEscan; format: binding; conditions: 1000 nM
[4] = tested on: ABL2; assay: KINOMEscan; format: binding; conditions: 1000 nM
[5] = tested on: BIKE; assay: KINOMEscan; format: binding; conditions: 1000 nM
[6] = target: T1, BLK (Homo sapiens, UniProt P51451); assay: KINOMEscan; format: binding; conditions: 1000 nM
T1 construct: purchased Invitrogen (Carlsbad, CA, USA)

[7] = tested on: BRSK1; assay: KINOMEscan; format: binding; conditions: 1000 nM
[8] = tested on: BRSK2; assay: KINOMEscan; format: binding; conditions: 1000 nM
[9] = tested on: BUB1; assay: KINOMEscan; format: binding; conditions: 1000 nM
[10] = tested on: CAMK1G; assay: KINOMEscan; format: binding; conditions: 1000 nM
[11] = tested on: CAMK4; assay: KINOMEscan; format: binding; conditions: 1000 nM
[12] = tested on: CDKL3; assay: KINOMEscan; format: binding; conditions: 1000 nM
[13] = tested on: CHEK1; assay: KINOMEscan; format: binding; conditions: 1000 nM
[14] = tested on: CLK3; assay: KINOMEscan; format: binding; conditions: 1000 nM
[15] = tested on: CLK4; assay: KINOMEscan; format: binding; conditions: 1000 nM
[16] = tested on: CSF1R-autoinhibited; assay: KINOMEscan; format: binding; conditions: 1000 nM
[17] = tested on: CSNK2A2; assay: KINOMEscan; format: binding; conditions: 1000 nM
[18] = tested on: DYRK1B; assay: KINOMEscan; format: binding; conditions: 1000 nM
[19] = tested on: EPHA2; assay: KINOMEscan; format: binding; conditions: 1000 nM
[20] = tested on: EPHB2; assay: KINOMEscan; format: binding; conditions: 1000 nM
[21] = tested on: EPHB4; assay: KINOMEscan; format: binding; conditions: 1000 nM
[22] = tested on: EPHB6; assay: KINOMEscan; format: binding; conditions: 1000 nM
[23] = tested on: ERBB3; assay: KINOMEscan; format: binding; conditions: 1000 nM
[24] = tested on: ERK1; assay: KINOMEscan; format: binding; conditions: 1000 nM
[25] = tested on: ERK3; assay: KINOMEscan; format: binding; conditions: 1000 nM
[26] = tested on: FLT3(D835Y); assay: KINOMEscan; format: binding; conditions: 1000 nM
[27] = tested on: GAK; assay: KINOMEscan; format: binding; conditions: 1000 nM
[28] = tested on: JNK2; assay: KINOMEscan; format: binding; conditions: 1000 nM
[29] = tested on: LATS2; assay: KINOMEscan; format: binding; conditions: 1000 nM
[30] = tested on: LYN; assay: KINOMEscan; format: binding; conditions: 1000 nM
[31] = tested on: MAP3K2; assay: KINOMEscan; format: binding; conditions: 1000 nM
[32] = tested on: MAP3K4; assay: KINOMEscan; format: binding; conditions: 1000 nM
[33] = tested on: MEK4; assay: KINOMEscan; format: binding; conditions: 1000 nM
[34] = tested on: MLCK; assay: KINOMEscan; format: binding; conditions: 1000 nM
[35] = tested on: MTOR; assay: KINOMEscan; format: binding; conditions: 1000 nM
[36] = tested on: MYLK; assay: KINOMEscan; format: binding; conditions: 1000 nM
[37] = tested on: NDR1; assay: KINOMEscan; format: binding; conditions: 1000 nM
[38] = tested on: NDR2; assay: KINOMEscan; format: binding; conditions: 1000 nM
[39] = tested on: PKAC-alpha; assay: KINOMEscan; format: binding; conditions: 1000 nM
[40] = tested on: PRKCD; assay: KINOMEscan; format: binding; conditions: 1000 nM
[41] = tested on: PRKCH; assay: KINOMEscan; format: binding; conditions: 1000 nM
[42] = tested on: PRKCI; assay: KINOMEscan; format: binding; conditions: 1000 nM
[43] = tested on: PRKG1; assay: KINOMEscan; format: binding; conditions: 1000 nM
[44] = tested on: PRKR; assay: KINOMEscan; format: binding; conditions: 1000 nM
[45] = tested on: RET(M918T); assay: KINOMEscan; format: binding; conditions: 1000 nM
[46] = tested on: RIOK1; assay: KINOMEscan; format: binding; conditions: 1000 nM
[47] = tested on: RIPK1; assay: KINOMEscan; format: binding; conditions: 1000 nM
[48] = tested on: RSK3(Kin.Dom.1-N-terminal); assay: KINOMEscan; format: binding; conditions: 1000 nM
[49] = tested on: SBK1; assay: KINOMEscan; format: binding; conditions: 1000 nM
[50] = tested on: STK16; assay: KINOMEscan; format: binding; conditions: 1000 nM
[51] = tested on: TAK1; assay: KINOMEscan; format: binding; conditions: 1000 nM
[52] = tested on: TAOK1; assay: KINOMEscan; format: binding; conditions: 1000 nM
[53] = tested on: TEC; assay: KINOMEscan; format: binding; conditions: 1000 nM
[54] = tested on: TNIK; assay: KINOMEscan; format: binding; conditions: 1000 nM
[55] = tested on: ULK2; assay: KINOMEscan; format: binding; conditions: 1000 nM

T1 sequence (P51451 whole entry): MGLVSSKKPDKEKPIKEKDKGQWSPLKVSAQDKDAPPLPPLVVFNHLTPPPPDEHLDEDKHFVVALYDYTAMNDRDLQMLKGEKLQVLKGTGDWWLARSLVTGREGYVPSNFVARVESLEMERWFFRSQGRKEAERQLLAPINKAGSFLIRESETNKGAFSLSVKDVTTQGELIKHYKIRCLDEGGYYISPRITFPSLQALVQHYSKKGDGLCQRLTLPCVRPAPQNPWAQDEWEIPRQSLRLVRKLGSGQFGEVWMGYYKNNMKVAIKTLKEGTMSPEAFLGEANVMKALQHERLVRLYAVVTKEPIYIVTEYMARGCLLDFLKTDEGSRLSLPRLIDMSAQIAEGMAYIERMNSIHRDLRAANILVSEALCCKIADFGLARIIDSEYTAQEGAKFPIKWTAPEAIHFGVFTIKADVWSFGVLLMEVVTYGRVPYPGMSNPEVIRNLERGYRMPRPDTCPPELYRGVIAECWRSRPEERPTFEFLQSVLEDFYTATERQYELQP

## C=CC(=O)Nc1cc(Nc2cc(-c3cccc(NC(=O)c4cc5c(s4)CCCC5)c3C)cn(C)c2=O)ccc1N1CCN(CC)CC1 [CHMFL-BTK-85]
[1]; iv, Rats, I.V. 1mg/kg
  AUC(0-inf): 766 ± 261 ng·h/mL
  AUC(0-t): 747 ± 263 ng·h/mL
  Cmax: 1080 ± 390 ng/mL
  Tmax: 0.02 h
  half-life: 1.6 ± 0.3 h
  MRT inf: 1.6 ± 0.2 h
[1]; po, Rats, P.O. 10mg/kg
  AUC(0-inf): 2160 ± 474 ng·h/mL
  Cmax: 296 ± 67 ng/mL
  Tmax: 6 h
  bioavailability: 29%
  half-life: 2.9 h
  MRT inf: 6.5 ± 0.1 h
[1]; rats, oral administration at 10 mg/kg
  AUC(0-t): 2140 ng·h/mL
[2]; TMD8 xenograft, 100 mg/kg/day, 28 days
  TGI: 96%
[2]; mouse, body weight monitoring
  toxicity signs in TMD8 xenograft model: no weight loss or any other obvious signs of toxicity
[3]
  Percent Control: 100%
[4]
  Percent Control: 88%
[5]
  Percent Control: 100%
[6]
  percent of control kinase binding at 1 µM: 57%
[7]
  Percent Control: 100%
[8]
  Percent Control: 99%
[9]
  Percent Control: 100%
[10]
  Percent Control: 94%
[11]
  Percent Control: 100%
[12]
  Percent Control: 99%
[13]
  Percent Control: 79%
[14]
  Percent Control: 80%
[15]
  Percent Control: 96%
[16]
  Percent Control: 100%
[17]
  Percent Control: 98%
[18]
  Percent Control: 99%
[19]
  Percent Control: 87%
[20]
  Percent Control: 84%
[21]
  Percent Control: 67%
[22]
  Percent Control: 69%
[23]
  Percent Control: 95%
[24]
  Percent Control: 93%
[25]
  Percent Control: 100%
[26]
  Percent Control: 100%
[27]
  Percent Control: 100%
[28]
  Percent Control: 100%
[29]
  Percent Control: 100%
[30]
  Percent Control: 100%
[31]
  Percent Control: 100%
[32]
  Percent Control: 92%
[33]
  Percent Control: 100%
[34]
  Percent Control: 100%
[35]
  Percent Control: 100%
[36]
  Percent Control: 66%
[37]
  Percent Control: 100%
[38]
  Percent Control: 34%
[39]
  Percent Control: 100%
[40]
  Percent Control: 77%
[41]
  Percent Control: 93%
[42]
  Percent Control: 100%
[43]
  Percent Control: 93%
[44]
  Percent Control: 49%
[45]
  Percent Control: 78%
[46]
  Percent Control: 100%
[47]
  Percent Control: 97%
[48]
  Percent Control: 85%
[49]
  Percent Control: 100%
[50]
  Percent Control: 68%
[51]
  Percent Control: 100%
[52]
  Percent Control: 94%
[53]
  Percent Control: 100%
[54]
  Percent Control: 99%
[55]
  Percent Control: 100%
